Data on nine molecules can be found in publication PMC8950868, “Identifying Human PTP1B Enzyme Inhibitors from Marine Natural Products: Perspectives for Developing of Novel Insulin-Mimetic Drugs” (Pharmaceuticals, 2022).

The target of assay [1] is T1, human recombinant PTP1B (1–302) (Homo sapiens, UniProt P18031).
T1 construct: human recombinant PTP1B (1–302)
T1 sequence (P18031 1-302): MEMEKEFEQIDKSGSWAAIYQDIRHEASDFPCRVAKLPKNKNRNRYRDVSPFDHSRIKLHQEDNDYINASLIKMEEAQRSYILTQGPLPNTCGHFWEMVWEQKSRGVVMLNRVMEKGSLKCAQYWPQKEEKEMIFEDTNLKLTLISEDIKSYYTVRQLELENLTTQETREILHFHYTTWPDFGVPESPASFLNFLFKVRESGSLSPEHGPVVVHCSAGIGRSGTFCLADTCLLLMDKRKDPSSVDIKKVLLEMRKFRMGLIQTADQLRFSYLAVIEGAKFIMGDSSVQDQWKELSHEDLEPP
The assay can be described thus: PTP1B enzymatic assay (p-NPP hydrolysis; preliminary screening and IC50). The assay is classed as biochemical. The following applies: for Effect on PTP1B activity in preliminary screening: 20 µM of each compound, 30 min; for IC50: 2.5 mM p-NPP, pH 7.0, 37 °C, mean ± SD (n = 3), read-out: IC50 values determined on PTP1B. Here is the method: We performed enzymatic assays as previously described. For each assay, an aliquot of human recombinant PTP1B (1–302) was added in the assay buffer (0.075 M β,β-dimethylglutarate pH 7.0 containing 1 mM EDTA, 0.1 mM DTT and a p-nitrophenylphosphate (p-NPP) (Chemcruz, Santa Cruz Biotechnology (Santa Cruz, CA, USA)). The reactions were performed at 37 °C in a final volume of 1 mL. After adequate time (30 min) of incubation, the reactions were stopped adding 2 mL of 0.1 M KOH in each sample. The released amount of p-nitrophenol, product of the reaction, was determined by measuring the absorbance at 400 nm in a 1 cm pathlength cuvette.
The IC50 value of compounds against PTP1B was determined by measuring the hydrolysis rate of the enzyme in the presence of a fixed substrate concentration (2.5 mM p-NPP) and increasing inhibitor concentrations (generally 14–16 different concentrations). Each test was carried out in triplicate. Experimental data were normalized respect to control samples and then fitted using a non-linear fitting software, using the following equation: Vi/V0=Max−Min/1+x/IC50^slope+Min where the Vi/V0 value represents the relative activity calculated in presence of each inhibitor concentration; the maximum and minimum value of the activity are represented by “Max” and “Min”, respectively; “x” is the concentration of the inhibitor; IC50 is the inhibitor concentration able to decrease the enzymatic activity up to 50%; “slope” represents the slope of the curve in the transition zone.
Figure 2 Preliminary screening assay on PTP1B. All assays were started by diluting an aliquot of PTP1B in the assay solution containing substrate alone (control test) or substrate and an aliquot of each compound (20 µM, final concentration). After 30 min, the reactions were stopped by adding a concentrated KOH solution. The enzyme activity was determined by measuring the amount of p-nitrophenol that was released in each sample using a spectrophotometer. Data obtained were normalized respect to control sample. […] Statistical analysis was carried out using one way ANOVA followed by Tukey’s HSD test for pairwise comparisons. Statistics have been drawn on raw data and compare samples to control (Ctr). * p < 0.05; ** p < 0.01.
Figure 3 Determination of the IC50 values with compounds 3, 8a, 8b, 9a and 9b. An aliquot of PTP1B enzyme was diluted in the presence of increasing concentration of the compounds. The activity of PTP1B was determined by measuring the absorbance of the sample at 400 nm, using a spectrophotometer. Data obtained were normalized respect to the control sample and analysed using a non-linear fitting software.

The target of assay [2] is T2, human recombinant AR (Homo sapiens, UniProt P15121).
T2 construct: made in house
The assay can be described thus: AR enzymatic assay (NADPH oxidation, L-idose substrate). The following applies: for % residual activity of human AR / remaining activity at 210 µM: 210 µM (maximal concentration used); for % residual activity of human AR: 210 µM; for remaining activity at 43 µM: 43 µM (maximal concentration used). The assay is classed as biochemical. On the procedure:
The human recombinant AR, purified to electrophoretic homogeneity as described, was used as target enzyme. AR activity was determined at 37 °C as previously described by evaluating the decrease in absorbance at 340 nm linked to NADPH oxidation using a Biochrom Libra S60 spectrophotometer. The standard assay mixture contained 0.25 M sodium phosphate buffer pH 6.8, 0.18 mM NADPH, 0.42 M ammonium sulfate, 0.5 mM EDTA and 4.7 mM D,L-glyceraldehyde. One unit of enzyme activity is the amount that catalyses the conversion of 1 µmol of substrate/min in the above assay conditions. For AR inhibition studies, 0.8 mM L-idose was used as substrate in the conditions described above, in the presence of 10 mU of enzyme and of a final concentration of DMSO of 0.7% (v/v).

The test system of assay [3] is AR. Further details: method as in PMID 34677434. The following applies: cited from earlier work.
The subject of assay [4] is GST–PTP1B fusion protein. On the set-up: method as in PMID 27064611. The note with it: different pH value, read-out: IC50 on PTP1B previously determined; cited from earlier work.
The subject of assay [5] is HepG2 cells. On the set-up: method as in PMID 34677434. The following applies: cited from earlier work.
Assay [6] concerns PTP1B. Further details: method as in PMID 34677434. The note with it: cited from earlier work.
Where [7] appears, read: read-out: % residual activity of human AR.

Consider `CCCCC[C@@H](O)[C@@H](O)CC[C@H](CCCC)OC(C)=O` (relative stereo) [Compound 7a], for which the “Effect on PTP1B activity in preliminary screening” value (from here on “Effect on PTP1B activity”) in assay [1] is on record as “loss of activity”.
For the molecule `CCCCC[C@H](O)[C@H](O)CC[C@H](CCCC)OC(C)=O` (relative stereo) [Compound 7b], in assay [1], the “Effect on PTP1B activity” value is on record as “loss of activity”.
`CCCCC[C@H](OP(=O)(O)O)[C@H](O)CC[C@H](CCCC)OC(C)=O` (relative stereo) [Compound 8b]: in assay [1], the “Effect on PTP1B activity” value is on record as “reducing PTP1B activity” and the IC50 (usually the concentration needed to halve the response being measured) was 37.1 ± 6.5 µM. Also, the “% residual activity of human AR” value in assay [2] is 74 ± 8%. Further, the remaining activity at 210 µM in assay [2] (setting [7]) worked out at 76%.
As for `CCCCC[C@@H](O)[C@H](CC[C@H](CCCC)OC(C)=O)OP(=O)(O)O` (relative stereo) [Compound 9a], in assay [1], the “Effect on PTP1B activity” value is “reducing PTP1B activity” and the IC50 amounted to 83 ± 15 µM. In assay [2] (107 µM (maximal concentration used), read-out: % residual activity of human AR), the remaining activity at 107 µM worked out at 86 ± 2%.
On to `CCCCC[C@H](O)[C@@H](CC[C@H](CCCC)OC(C)=O)OP(=O)(O)O` (relative stereo) [Compound 9b], for which, in assay [1], the “Effect on PTP1B activity” value is reported as “reducing PTP1B activity” and the IC50 was found to be 63 ± 14 µM. The “% residual activity of human AR” value in assay [2] stood at 74 ± 6%. The remaining activity at 210 µM in assay [2] (setting [7]) came out at 77%.
For `O=C(O)CNC(=O)CCCCCC[C@H](O)CCCO` [Compound 2], the “Effect on PTP1B activity” value in assay [1] is on record as “loss of activity”. Besides, the “AR inhibition (in words)” value in assay [2] is listed as “ineffective”. In assay [2] (71 µM (maximal concentration used), read-out: % residual activity of human AR), the remaining activity at 71 µM was determined as 103 ± 4%.
Regarding `CCCCC[C@@H](O)[C@@H](O)CC[C@@H](O)CCCC` [Compound 4a, (5S,8S,9R)-tetradecane-5,8,9-triol], the “Effect on PTP1B activity” value in assay [1] is “loss of activity”. For the same molecule, the remaining activity at 43 µM in assay [2] (setting [7]) stood at 97 ± 4%.
With `CCCCC[C@H](O)[C@H](O)CC[C@@H](O)CCCC` [Compound 4b, (5S,8R,9S)-tetradecane-5,8,9-triol], the “Effect on PTP1B activity” value in assay [1] was “loss of activity”. Moreover, the remaining activity at 43 µM in assay [2] (setting [7]) was 98 ± 3%.
As to `CCCCCCCCCCCCCCC(OP(=O)(O)O)C(O)CCC(O)C(O)CCC(O)CCCCCCC(=O)NCC(=O)O` (stereo not shown) [Phosphoeleganin, phosphoeleganin], the values for the half-inhibitory concentration (IC50) in assay [1] and in assay [4] were 0.7 ± 0.1 µM and 11 ± 2 µM, respectively. For the same molecule, the “Type of AR inhibition” value in assay [3] is given as “mixed-type inhibitor”. Besides, the “Activity in HepG2 cells” value in assay [5] is recorded as “insulin-sensitizing activity”. In assay [6], the “Type of PTP1B inhibition” value is on record as “pure non-competitive inhibitor”.
